Results on one molecule are retold here after patent publication US20220305093A1, “NK-LYSIN PEPTIDE COMPOSITIONS AND METHODS FOR THEIR USE AS ANTIMICROBIAL/ANTIVIRAL AGENTS” (priority 2021, published 2022).

For assay [1], the system named is Salmonella typhimurium (ATCC 14028). Briefly: microbe, parasite or virus in culture. The note with it: S.typhimrium ATCC 14028. The protocol: (§1) The minimum inhibitory concentration (MIC) is defined as the lowest concentration of an antimicrobial ingredient or agent that is bacteriostatic (prevents the visible growth of bacteria).
(§2) Mueller Hinton broth (MHB) comprising 0.01% v/v acetic acid (Sigma Aldrich; St Louis, Mo.) and 0.2% w/v bovine serum albumin (Sigma Aldrich). Equal concentrations of bacteria were plated in wells of standard tissue culture microplates at a density of 0.5×10^8 CFU ml^−1 in MHB per well. Treatments were equivalent volumes (50 μl) of NK-lysin peptides in concentrations of 0 to 150 μg/ml, or no NK-lysin peptides for control wells. The treated plates were incubated at […] and optical densities were determined for each well at 0 minutes, 1, 2 and 3 hours and after an overnight incubation.

Assay [2] concerns Streptococcus mutans (isolate). Briefly: microbe, parasite or virus in culture. The note with it: isolate. Here is the method: as §1, §2
Assay [3] deals with Klebsiella oxytoca (ATCC 49131). Briefly: microbe, parasite or virus in culture. To be noted: ATCC 49131. Here is the method:
as §1, §2

Assay [4] deals with Klebsiella pneumoniae (patient isolate). Briefly: microbe, parasite or virus in culture. The note with it: patient isolate. Here is the method: as §1, §2
Assay [5] has as its system Streptococcus pyogenes (ATCC 19615). Put plainly: microbe, parasite or virus in culture. To be noted: ATCC 19615. The protocol: as §1, §2
Assay [6] has as its system Shigella sonnei (ATCC 25931). Put plainly: microbe, parasite or virus in culture. To be noted: Sh. sonnei ATCC 25931. Here is the method:
as §1, §2

Assay [7] deals with Escherichia coli (ATCC 11775). Briefly: microbe, parasite or virus in culture. The note with it: ATCC 11775. Here is the method: as §1, §2
Assay [8] concerns Pseudomonas aeruginosa (ATCC 9027). Briefly: microbe, parasite or virus in culture. The note with it: ATCC 9027. Here is the method:
as §1, §2

Assay [9] deals with gram-positive and gram-negative bacteria. Put plainly: organism not typed. To be noted: in vitro, some bacterial strains. The text has this: The gram-positive bacterial strains utilized were Streptococcus pyogenes (ATCC 19615) and Streptococcus mutans (isolate obtained from a patient at King Abdul-Aziz hospital). The gram-negative bacterial strains used included Salmonella typhimurium (ATCC 14028), Escherichia coli (ATCC 11775), Pseudomonas aeruginosa (ATCC 9027), Klebsiella oxytoca (ATCC 49131), Shigella sonnei (ATCC 25931), and Klebsiella pneumoniae (patient isolate). Tryptic soy broth (TSB) was used to grow all bacterial strain overnight, after which the bacteria were washed using phosphate-buffered saline (PBS, NaCl 8 g/L, KCl 0.2 g/L, Na2HPO4 1.4 g/L, KH2PO4 0.24 g/L), and then diluted in the same buffer with 1/1000 TSB to an OD600 nm of 0.08-0.1 (1×10^8) colony-forming units (CFU)/ml, which was determined after performing retrospective plate counts on tryptic soy agar. Unless otherwise noted, the experiments in the following examples employed this inoculum preparation apart from when minimum inhibitory and bactericidal concentrations were determined, which employed cells in Muller Hinton broth. […]
Mueller Hinton broth (MHB) comprising 0.01% v/v acetic acid (Sigma Aldrich; St Louis, Mo.) and 0.2% w/v bovine serum albumin (Sigma Aldrich). […] The treated plates were incubated at […] and optical densities were determined for each well at 0 minutes, 1, 2 and 3 hours and after an overnight incubation. […]

Converted amounts (≈) assume the structure as drawn. Residues, ends and D or L forms follow the SMILES beside them.

For `CC[C@H](C)[C@H](NC(=O)[C@H](C)NC(=O)[C@H](CC(=O)O)NC(=O)[C@H](CCC(=O)O)NC(=O)[C@H](CC(=O)O)NC(=O)[C@@H]1CCCN1)C(=O)N[C@@H](CC(N)=O)C(=O)N[C@@H](CC(N)=O)C(=O)N[C@@H](C)C(=O)N[C@@H](CC(C)C)C(=O)N[C@@H](CC(N)=O)C(=O)N[C@@H](CCCCN)C(=O)N[C@H](C(=O)N[C@@H](CS)C(=O)N[C@@H](CO)C(=O)N[C@H](C(=O)NCC(=O)N[C@@H](CCCNC(=N)N)C(=O)N[C@@H](CCCNC(=N)N)C(=O)N[C@@H](CCC(N)=O)C(=O)N[C@@H](CCCNC(=N)N)C(=O)N[C@@H](CO)C(=O)N[C@H](C(=O)N[C@@H](CS)C(=O)N[C@@H](CCCCN)C(=O)N[C@@H](CCC(N)=O)C(=O)N[C@@H](CC(C)C)C(=O)N[C@@H](CC(C)C)C(=O)N[C@@H](CCCCN)C(=O)N[C@@H](CCCCN)C(=O)O)[C@@H](C)CC)[C@@H](C)O)C(C)C` [Chicken NK-lysin] (H-PDEDAINNALNKVCSTGRRQRSICKQLLKK-OH; N-terminus and C-terminus assumed), the MBC in assay [1] came to 30 ± 0.10 µg/mL (≈ 8.82 µM); in [2] it was 15 ± 0.00 µg/mL (≈ 4.41 µM); in assay [3] it was 25 ± 0.10 µg/mL (≈ 7.35 µM); in assay [4] it was 25 ± 0.010 µg/mL (≈ 7.35 µM); in assay [5] it was 25 ± 0.010 µg/mL (≈ 7.35 µM); in assay [7], 25 ± 0.010 µg/mL (≈ 7.35 µM). The MBC in assay [8] was 25 ± 0.013 µg/mL (≈ 7.35 µM). The MIC in assay [1] stood at 15 ± 0.098 µg/mL (≈ 4.41 µM); in [2], 15 ± 0.00 µg/mL (≈ 4.41 µM); in assay [3], 15 ± 0.015 µg/mL (≈ 4.41 µM); in [4], 15 ± 0.030 µg/mL (≈ 4.41 µM); in [5] it was 15 ± 0.00 µg/mL (≈ 4.41 µM); in [6], 15 ± 0.033 µg/mL (≈ 4.41 µM). Besides, the MIC in [7] and in [8] was 15 ± 0.012 µg/mL (≈ 4.41 µM) throughout. Also, the “time to nearly complete killing” value in assay [9] was no more than 3 h.
